Measurements: PMC10726367 (Journal of Medicinal Chemistry, 2023)
“Also recorded” adds a separate entry of the source.

Columns and labels:
[1] = biological target: T1, RyR2 (Mus musculus, UniProt E9Q401); assay: Time-lapse [Ca2+]ER assay (RyR2 R-CEPIA1er assay) in HEK-293 cells with inducible WT RyR2; type: cell-based; conditions: for effect on [Ca2+]ER / R-CEPIA1er fluorescence (F/F0): 25 μM, vs 0.1 v/v% DMSO; for RyR2 effect class: 25 μM (S107 1 mM per Figure 2); for RyR2 effect class / EC50: HEK-293 RyR2 R-CEPIA1er cells; for EC50: value, interval
T1 construct: expressed in transfected cells; host or cells: HEK-293 cells stably expressing R-CEPIA1er with doxycycline-inducible WT RyR2
T1 sequence (E9Q401 whole entry): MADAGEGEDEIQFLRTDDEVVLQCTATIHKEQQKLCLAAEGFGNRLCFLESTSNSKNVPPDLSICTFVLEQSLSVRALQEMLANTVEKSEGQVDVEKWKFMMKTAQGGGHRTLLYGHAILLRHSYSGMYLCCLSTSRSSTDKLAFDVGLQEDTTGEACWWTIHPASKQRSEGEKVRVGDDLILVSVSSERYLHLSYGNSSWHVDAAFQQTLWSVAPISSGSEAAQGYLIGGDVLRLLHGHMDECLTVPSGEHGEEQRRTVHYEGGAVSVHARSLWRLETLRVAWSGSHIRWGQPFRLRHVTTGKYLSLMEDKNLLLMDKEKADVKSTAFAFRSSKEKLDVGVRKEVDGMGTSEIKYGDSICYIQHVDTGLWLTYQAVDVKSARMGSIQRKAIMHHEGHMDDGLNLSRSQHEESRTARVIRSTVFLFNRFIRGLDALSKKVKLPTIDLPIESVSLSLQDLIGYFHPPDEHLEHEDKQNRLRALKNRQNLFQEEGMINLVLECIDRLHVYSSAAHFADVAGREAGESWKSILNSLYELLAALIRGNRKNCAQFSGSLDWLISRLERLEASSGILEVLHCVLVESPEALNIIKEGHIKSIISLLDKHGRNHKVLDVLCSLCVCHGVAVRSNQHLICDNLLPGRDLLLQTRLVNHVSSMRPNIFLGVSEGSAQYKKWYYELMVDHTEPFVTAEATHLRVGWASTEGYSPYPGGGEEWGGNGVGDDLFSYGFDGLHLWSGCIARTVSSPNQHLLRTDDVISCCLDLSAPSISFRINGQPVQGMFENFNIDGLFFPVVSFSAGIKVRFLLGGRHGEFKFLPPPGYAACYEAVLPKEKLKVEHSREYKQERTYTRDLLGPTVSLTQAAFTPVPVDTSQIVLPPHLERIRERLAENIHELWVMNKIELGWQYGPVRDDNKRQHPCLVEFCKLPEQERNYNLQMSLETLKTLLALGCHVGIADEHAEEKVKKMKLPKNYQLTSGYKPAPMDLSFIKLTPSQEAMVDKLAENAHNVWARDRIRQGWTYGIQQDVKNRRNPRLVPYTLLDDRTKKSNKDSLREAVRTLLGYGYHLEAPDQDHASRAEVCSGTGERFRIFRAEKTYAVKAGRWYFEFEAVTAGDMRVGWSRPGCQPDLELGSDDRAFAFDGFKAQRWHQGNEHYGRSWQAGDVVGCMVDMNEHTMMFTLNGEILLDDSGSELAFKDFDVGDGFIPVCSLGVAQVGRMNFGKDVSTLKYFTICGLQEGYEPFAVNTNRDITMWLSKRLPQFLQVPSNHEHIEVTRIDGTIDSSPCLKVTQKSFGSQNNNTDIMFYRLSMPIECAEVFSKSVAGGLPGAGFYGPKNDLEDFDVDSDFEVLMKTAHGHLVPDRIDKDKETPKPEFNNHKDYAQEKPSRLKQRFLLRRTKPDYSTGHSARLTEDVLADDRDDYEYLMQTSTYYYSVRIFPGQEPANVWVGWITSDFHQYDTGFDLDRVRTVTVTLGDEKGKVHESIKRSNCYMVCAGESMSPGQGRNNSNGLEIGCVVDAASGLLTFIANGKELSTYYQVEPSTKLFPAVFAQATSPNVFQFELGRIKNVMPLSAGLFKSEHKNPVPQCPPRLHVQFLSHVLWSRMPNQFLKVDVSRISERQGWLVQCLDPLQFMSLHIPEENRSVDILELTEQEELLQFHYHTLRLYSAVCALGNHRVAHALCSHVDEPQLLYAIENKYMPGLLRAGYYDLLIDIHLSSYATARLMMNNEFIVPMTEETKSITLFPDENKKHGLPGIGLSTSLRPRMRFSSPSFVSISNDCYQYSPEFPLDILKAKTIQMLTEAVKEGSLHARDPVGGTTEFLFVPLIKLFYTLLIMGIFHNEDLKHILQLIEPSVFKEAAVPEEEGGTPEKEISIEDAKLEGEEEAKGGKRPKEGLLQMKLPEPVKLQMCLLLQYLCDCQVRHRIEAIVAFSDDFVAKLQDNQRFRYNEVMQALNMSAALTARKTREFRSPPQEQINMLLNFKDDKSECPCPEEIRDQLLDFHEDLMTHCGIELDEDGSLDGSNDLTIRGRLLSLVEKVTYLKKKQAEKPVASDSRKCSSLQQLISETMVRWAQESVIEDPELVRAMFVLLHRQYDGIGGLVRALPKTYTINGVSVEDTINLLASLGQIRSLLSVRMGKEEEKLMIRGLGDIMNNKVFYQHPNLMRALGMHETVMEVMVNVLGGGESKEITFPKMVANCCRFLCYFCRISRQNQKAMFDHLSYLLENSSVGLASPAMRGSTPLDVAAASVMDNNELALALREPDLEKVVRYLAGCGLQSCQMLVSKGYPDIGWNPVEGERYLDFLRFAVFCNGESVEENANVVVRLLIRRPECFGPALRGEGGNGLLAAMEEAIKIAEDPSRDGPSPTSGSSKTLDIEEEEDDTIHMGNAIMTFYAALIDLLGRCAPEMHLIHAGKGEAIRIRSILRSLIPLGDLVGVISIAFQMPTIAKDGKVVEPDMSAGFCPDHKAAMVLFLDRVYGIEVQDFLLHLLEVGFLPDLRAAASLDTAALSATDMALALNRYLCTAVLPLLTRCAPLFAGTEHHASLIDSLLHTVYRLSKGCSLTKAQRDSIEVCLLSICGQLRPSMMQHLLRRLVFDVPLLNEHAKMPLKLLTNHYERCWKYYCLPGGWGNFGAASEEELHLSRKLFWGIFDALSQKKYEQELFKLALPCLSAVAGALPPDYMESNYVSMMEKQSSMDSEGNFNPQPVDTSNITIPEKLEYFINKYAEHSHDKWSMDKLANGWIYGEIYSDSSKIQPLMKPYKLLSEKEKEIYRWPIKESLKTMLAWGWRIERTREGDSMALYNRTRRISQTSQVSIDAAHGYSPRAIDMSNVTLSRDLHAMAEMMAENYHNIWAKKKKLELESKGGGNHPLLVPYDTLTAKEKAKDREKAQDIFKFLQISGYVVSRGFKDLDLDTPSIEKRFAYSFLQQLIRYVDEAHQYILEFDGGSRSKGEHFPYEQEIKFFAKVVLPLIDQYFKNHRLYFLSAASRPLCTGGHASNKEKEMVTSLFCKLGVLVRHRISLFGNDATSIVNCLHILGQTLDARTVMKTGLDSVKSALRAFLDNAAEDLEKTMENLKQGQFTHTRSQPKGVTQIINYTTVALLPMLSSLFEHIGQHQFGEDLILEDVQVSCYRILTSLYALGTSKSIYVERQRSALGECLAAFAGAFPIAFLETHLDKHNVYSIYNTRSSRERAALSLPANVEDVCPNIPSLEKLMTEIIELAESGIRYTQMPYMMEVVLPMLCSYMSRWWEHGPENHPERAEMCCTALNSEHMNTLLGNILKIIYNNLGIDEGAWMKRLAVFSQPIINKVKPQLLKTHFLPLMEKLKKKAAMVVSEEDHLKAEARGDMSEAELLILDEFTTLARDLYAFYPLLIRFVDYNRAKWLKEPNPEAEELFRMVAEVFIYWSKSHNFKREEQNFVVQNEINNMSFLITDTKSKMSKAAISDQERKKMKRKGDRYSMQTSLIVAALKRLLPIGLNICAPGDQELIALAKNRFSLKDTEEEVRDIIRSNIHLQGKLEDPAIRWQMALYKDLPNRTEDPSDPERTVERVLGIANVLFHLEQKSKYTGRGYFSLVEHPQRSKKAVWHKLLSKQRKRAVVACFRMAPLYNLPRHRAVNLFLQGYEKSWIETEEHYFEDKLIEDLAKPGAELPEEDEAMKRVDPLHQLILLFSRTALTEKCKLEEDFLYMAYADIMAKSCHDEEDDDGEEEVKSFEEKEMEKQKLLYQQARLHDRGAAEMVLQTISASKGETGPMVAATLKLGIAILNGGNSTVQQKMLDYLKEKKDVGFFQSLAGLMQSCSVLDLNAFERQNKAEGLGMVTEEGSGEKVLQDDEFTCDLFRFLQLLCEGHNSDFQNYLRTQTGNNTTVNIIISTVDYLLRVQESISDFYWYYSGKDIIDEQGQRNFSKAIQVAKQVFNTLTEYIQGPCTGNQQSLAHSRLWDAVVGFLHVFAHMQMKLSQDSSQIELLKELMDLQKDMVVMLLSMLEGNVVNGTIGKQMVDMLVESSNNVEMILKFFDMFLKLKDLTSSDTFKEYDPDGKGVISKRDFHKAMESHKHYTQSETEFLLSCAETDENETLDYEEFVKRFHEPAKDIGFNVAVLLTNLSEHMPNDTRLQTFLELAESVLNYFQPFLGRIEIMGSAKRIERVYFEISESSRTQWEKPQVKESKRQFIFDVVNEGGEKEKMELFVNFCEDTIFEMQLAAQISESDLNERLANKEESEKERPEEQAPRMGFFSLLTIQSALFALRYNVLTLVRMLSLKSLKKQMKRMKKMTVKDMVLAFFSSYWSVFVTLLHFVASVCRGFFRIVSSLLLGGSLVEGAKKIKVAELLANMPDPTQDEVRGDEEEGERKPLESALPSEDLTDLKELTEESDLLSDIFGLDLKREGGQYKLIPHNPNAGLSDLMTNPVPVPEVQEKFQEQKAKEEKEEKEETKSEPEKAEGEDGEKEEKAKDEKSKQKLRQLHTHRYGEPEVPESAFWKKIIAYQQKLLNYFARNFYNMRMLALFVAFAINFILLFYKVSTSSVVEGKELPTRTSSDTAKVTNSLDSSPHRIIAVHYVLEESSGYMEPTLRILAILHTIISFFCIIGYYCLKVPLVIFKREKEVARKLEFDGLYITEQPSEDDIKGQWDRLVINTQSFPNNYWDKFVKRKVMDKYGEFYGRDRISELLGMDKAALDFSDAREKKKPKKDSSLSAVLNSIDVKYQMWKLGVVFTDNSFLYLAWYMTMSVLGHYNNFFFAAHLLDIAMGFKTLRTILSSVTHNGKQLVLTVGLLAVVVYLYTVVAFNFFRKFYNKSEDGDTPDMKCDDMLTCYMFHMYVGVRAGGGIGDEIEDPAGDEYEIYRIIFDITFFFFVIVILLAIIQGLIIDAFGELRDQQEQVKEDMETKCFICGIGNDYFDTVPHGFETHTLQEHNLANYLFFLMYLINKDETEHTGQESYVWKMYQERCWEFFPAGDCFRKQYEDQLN
Description: To assess the functional potency of novel agents for modulating RyR2 channel activity, we measured changes in Ca^2+ levels in ER of HEK-293 cells with inducible expression of wild-type RyR2 (WT RyR2).[33],[34] Because the expression of WT RyR2 introduces an additional spontaneous Ca^2+ leak from the ER, these cells are suitable for our purpose of testing potential RyR2 stabilizers.[35] The cells additionally stably express the Ca^2+ fluorescence indicator R-CEPIA1er, which is a genetically encoded sensor protein of Ca^2+ in the ER (the cell line was a gift from T. Murayama, Department of Pharmacology, Juntendo University School of Medicine, Tokyo, Japan).[36]
The addition of these compounds, which are known to inhibit excessive cardiac RyR2 activity, should reduce Ca^2+ leak from the ER, thus increasing the R-CEPIA1er fluorescence.
The fluorescence plate reader [Ca^2+]ER assay was performed according to the slightly modified protocol of Murayama and Kurebayashi.[36] […] After the cells were inducted with doxycycline for 24 h, changes in ER calcium concentrations [Ca^2+]ER were measured on a multiwell plate reader TECAN Spark 20 M at 37 °C. The 1000 × stock solutions of the test compounds were prepared in DMSO. Briefly, the culture medium was removed and 100 μL of Tyrode’s solution containing 2 mM CaCl2 was added to the cells. The time courses were recorded in each well. Fluorescence was evoked by a 560 nm excitation wavelength and collected in a bottom-read mode at 610 nm. Data was recorded every 10 s, exposure −20 flashes, excitation bandwidth −20 nm, emission bandwidth −20 nm. 100 μL of 0–100 μM solution of test compound in Tyrode’s solution containing 2 mM CaCl2 was injected in each well (speed 100 μL/s) at the 90 s time point. […] The 0.1 v/v% DMSO and 2 mM CaCl2 Tyrode’s solution was used as a control.
The dose–response curves were calculated using the software package GraphPad Prism version 8.3.1. (GraphPad Software, Inc.). All data are presented as mean ± SD in three independent experiments. Y = bottom + (top – bottom)/(1 + 10^((LogEC50 – X) × HillSlope)) was used, where HillSlope describes the steepness of the curve, and top and bottom are plateaus in the units of the Y-axis.

[2] = biological target: T2, SERCA2a (Mus musculus, UniProt O55143); assay: Caffeine-induced Ca2+ release assay in HL-1 cells (FLIPR Calcium 6); type: cell-based; conditions: for SERCA2a HL-1 effect class: 10 μM (25 μM for 11d), caffeine assay; for effect on caffeine-induced Ca2+ release (in words): 2 h incubation at various concentrations
T2 construct: host or cells: HL-1 cells
Description: It is known that caffeine stimulates the release of calcium from intracellular stores in cells by acting as a RyR activator.[39],[40] The binding site for caffeine is located on the cytosolic side of the protein between the C-terminal and the S2S3 domain.[41] When caffeine binds to RyR2, it interacts with specific amino acids on the protein, which causes conformational changes in the protein’s structure.[42] This opens the RyR2 channel pore, enabling the mass release of calcium ions from the SR. We investigated the effect of caffeine-induced Ca^2+ release in HL-1 cells treated with cytosolic Ca^2+ indicator FLIPR Calcium 6 (Molecular Devices). The HL-1 cell line is an immortalized mouse cardiomyocyte cell line commonly used to study the effects of various substances on cell function.[43] If the tested compound modulates SERCA2a activation, it will cause an increase in Ca^2+ concentration in the SR and the effect of a fixed dose of caffeine on SR Ca^2+ release will be potentiated by increasing doses of a proposed SERCA activator.[26] As a positive control, we used CDN1163, a small-molecule SERCA activator, which is at present in a clinical trial due to its potential therapeutic use for certain cardiac conditions.[27]
HL-1 cells (50,000 per well) were cultivated for 24 h in black-walled, clear-bottom 96-well microplates (Corning, Amsterdam, The Netherlands) covered with fibronectin/gelatin (Merck KGaA, Darmstadt, Germany) in a humidified incubator at 37 °C and 5% CO2.
Changes in Ca^2+ concentration were measured on a multiwell plate reader TECAN Spark 20 M using a FLIPR 6 Calcium Assay Kit from Molecular Devices (Molecular Devices LLC, München, Germany) at 37 °C. The 1000 × stock solutions of the test compounds were prepared in DMSO. A 100 μL solution of test compound in Tyrode’s solution containing FLIPR Calcium 6 dye was incubated for 2 h at 37 °C and 5% CO2 in a humidified incubator. The time courses were recorded in each well. Fluorescence was evoked at 485 nm excitation wavelength and read out in a bottom-read mode at 525 nm. Data were recorded every 2 s, exposure −20 flashes, excitation bandwidth −10 nm, emission bandwidth −15 nm. To initiate Ca^2+ influx, 25 μL of 50 mM caffeine solution in Tyrode’s solution containing 2 mM CaCl2 was injected in each well (speed 100 μL/s) at the 10 s time point, resulting in 10 mM final concentration in the well. The differences between the caffeine-induced peak minus basal fluorescence, ΔFCaff, were taken into account for the analysis. The Tyrode’s solution +0.1 v/v% DMSO was used as a control. The dose–response curves were calculated using the software package GraphPad Prism version 8.3.1. All data are presented as mean ± SD from eight independent experiments. Y = bottom + (top – bottom)/(1 + 10^((LogEC50 – X) × HillSlope)) was used, where HillSlope describes the steepness of the curve and top and bottom are plateaus in the units of the Y axis.

[3] = Membrane permeability, PermeaPad Plate (cell-free transport model); type: in vitro ADME; conditions: for Pe: 24 h, room temperature; for Pe class (low/medium/high; poor): class word printed beside Pe, no key given
Method: Membrane permeability was assessed using PermeaPad Plate according to the manufacturing procedure (innoME GmbH, Espelkamp, Germany). Briefly, 200 μL of water was added into the acceptor plate. 200 μL of 100–500 μM test compound in water was added directly to the well membranes of the donor plate. The donor plate contains a biomimetic membrane for simulating passive mass transfer through different barriers in the body. Then, the donor plate was placed into the acceptor plate wells and incubated at room temperature for 24 h in the dark. To determine the peak absorbance of test compounds, absorbance spectra of acceptor solutions and initial solutions for each test compound were read out. The permeability rate (Pe) was calculated using the formula:
[drawing 1] , where ODA is the absorbance of acceptor solution and ODE is the absorbance of the standard solution; if the compound is able to permeabilize the membrane and fully reach equilibrium, 250 μM will be the final concentration of solution in the donor and acceptor wells. The coefficient C was calculated using the formula:
[drawing 2] , where VA is the acceptor volume (cm^3), VD is the donor volume (cm^3), the membrane area is 0.24 cm^2, and the time is 86,400 s.

| effect on [Ca2+]ER / R-CEPIA1er fluorescence (F/F0) [1] | SERCA2a HL-1 effect class [2] | Pe [3] | Pe class (low/medium/high; poor) [3] | RyR2 effect class [1] | EC50 ([2]; HL-1 cells, 10 mM caffeine, value, interval) [nM] | EC50 [1] [nM] | Structure (SMILES) | effect on caffeine-induced Ca2+ release (in words) ([2]; HL-1 cells, 10 mM caffeine) | dose response of F/F0 ([Ca2+]ER) ([1]; concentration range 10^–11 to 10^–4 M) |
| --- | --- | --- | --- | --- | --- | --- | --- | --- | --- |
| no significant RyR2-stabilizing effect | + | 3.6 10^–6 cm/s | high |  |  |  | COc1ccc2c(c1)CN(CCCCC1(O)CC1)CCS2 [11d, 1-(4-(7-Methoxy-2,3-dihydrobenzo[1,4-f]thiazepin-4(5H)-yl)butyl)cyclopropan-1-ol] | least efficacious; also recorded: no saturation effect at concentrations up to 50 μM; also recorded: slight |  |
| significantly increased [Ca^2+]ER | + | 6.8 10^–6 cm/s | high | ++ |  |  | COc1ccc2c(c1)CN(Cc1ccc(C(=O)O)cc1)CCS2 [ARM210, reference compound] | clear concentration-dependent effect |  |
|  | ++ | 6.9 10^–6 cm/s | high | ++ |  | 10.2 | COc1ccc(SCCCNCCCCC2(O)CC2)cc1 [11c, 1-(4-((3-((4-Methoxyphenyl)thio)propyl)amino)butyl)cyclopropan-1-ol] |  |  |

The remaining lines, values behind:

| Structure (SMILES) | effect on [Ca2+]ER / R-CEPIA1er fluorescence (F/F0) [1] | SERCA2a HL-1 effect class [2] | Pe [3] | Pe class (low/medium/high; poor) [3] | RyR2 effect class [1] | EC50 ([2]; HL-1 cells, 10 mM caffeine, value, interval) [nM] | EC50 [1] [nM] | effect on caffeine-induced Ca2+ release (in words) ([2]; HL-1 cells, 10 mM caffeine) | dose response of F/F0 ([Ca2+]ER) ([1]; concentration range 10^–11 to 10^–4 M) |
| --- | --- | --- | --- | --- | --- | --- | --- | --- | --- |
| COc1ccc2c(c1)CN(CCCCN(CCCCC1(O)CC1)CCCCC1(O)CC1)CCS2 [12a, 1,1′-(((4-(7-Methoxy-2,3-dihydrobenzo[1,4-f]thiazepin-4(5H)-yl)butyl)azanediyl)bis(butane-4,1-diyl))bis(cyclopropan-1-ol)] |  | ++ | 0.6 10^–6 cm/s | poor permeability and low | +++ | 9200 |  |  | most pronounced effect of all of the other compounds |
| COc1ccc(OCCCNCCCCC2(O)CC2)cc1 [11b, 1-(4-((3-(4-Methoxyphenoxy)propyl)amino)butyl)cyclopropan-1-ol] |  | ++ | 4.0 10^–6 cm/s | high | +++ |  | 81.5 |  |  |
| COc1ccc2c(c1)CN(CCCCNCCCCC1(O)CC1)CCS2 [11a, 1-(4-((4-(7-Methoxy-2,3-dihydrobenzo[1,4-f]thiazepin-4(5H)-yl)butyl)amino)butyl)cyclopropan-1-ol] |  | + | 0.8 10^–6 cm/s | poor permeability and low | ++ |  |  | most potent |  |
| COc1ccc(SCCCN(CCCCC2(O)CC2)CCCCC2(O)CC2)cc1 [12c, 1,1′-(((3-((4-Methoxyphenyl)thio)propyl)azanediyl)bis(butane-4,1-diyl))bis(cyclopropan-1-ol)] |  | +++ and ++ | 3.6 10^–6 cm/s | high | + |  | 18.6 | most efficacious; also recorded: stronger activating effect on caffeine-induced Ca^2+ release at concentrations above 10 μM |  |
